Assay results from patent US20150105252A1, “SUBSTITUTED PYRAZOLES AS HERBICIDES” (E I DU PONT DE NEMOURS AND COMPANY, priority 2013, published 2015).

Experiments:
buckwheat, wild = test: Test D preemergence; format: in vivo, Polygonum convolvulus; details: for Plant response rating (scale 0 to 100), Buckwheat, Wild: 16 g ai/ha, taken as preemergence; for Plant response rating, Buckwheat, Wild: Preemergence, scale 0 to 100
Source text: (§1) Seeds of plant species selected from bluegrass (annual bluegrass, Poa annua), blackgrass (Alopecurus myosuroides), canarygrass (littleseed canarygrass, Phalaris minor), chickweed (common chickweed, Stellaria media), galium (catchweed bedstraw, Galium aparine), bromegrass, downy (downy bromegrass, Bromus tectorum), field poppy (Papaver rhoeas), field violet (Viola arvensis), foxtail, green (green foxtail, Setaria viridis), deadnettle (henbit deadnettle, Lamium amplexicaule), ryegrass, Italian (Italian ryegrass, Lolium multiflorum), kochia (Kochia scoparia), lambsquarters (Chenopodium album), oilseed rape (Brassica napus), pigweed (redroot pigweed, Amaranthus retroflexus), chamomile (scentless chamomile, Matricaria inodora), speedwell (bird's-eye speedwell, Veronica persica), barley, spring (spring barley, Hordeum vulgare), wheat, spring (spring wheat, Triticum aestivum), buckwheat, wild (wild buckwheat, Polygonum convolvulus), mustard, wild (wild mustard, Sinapis arvensis), oat, wild (wild oat, Avena fatua), radish, wild (wild radish, Raphanus raphanistrum), windgrass (Apera spica-venti), Russian thistle (Salsola kali), barley, winter (winter barley, Hordeum vulgare), and wheat, winter (winter wheat, Triticum aestivum) were planted into a silt loam soil and treated preemergence with test chemicals formulated in a non-phytotoxic solvent mixture which included a surfactant.
(§2) At the same time, these species were planted in pots containing Redi-Earth® planting medium (Scotts Company, 14111 Scottslawn Road, Marysville, Ohio 43041) comprising spaghnum peat moss, vermiculite, wetting agent and starter nutrients and treated with postemergence applications of the test chemicals formulated in the same manner. Plants ranged in height from 2 to 18 cm (1- to 4-leaf stage). Treated plants and controls were maintained in a controlled growth environment for 14 to 21 days after which time all species were compared to controls and visually evaluated. Plant response ratings, summarized in Table D, are based on a scale of 0 to 100 where 0 is no effect and 100 is complete control. A dash (-) response means no test result.

field violet = test: Test D preemergence; format: in vivo, Viola arvensis; details: for Plant response rating (scale 0 to 100), Field Violet: 16 g ai/ha, taken as preemergence; for Plant response rating, Field Violet: Preemergence, scale 0 to 100
Source text: as §1, §2

canarygrass = test: Test D preemergence; format: in vivo, Phalaris minor; details: for Plant response rating (scale 0 to 100), Canarygrass: 16 g ai/ha, taken as preemergence; for Plant response rating, Canarygrass: Preemergence, scale 0 to 100
Source text: as §1, §2

lambsquarters = test: Test D postemergence; format: in vivo, Chenopodium album; details: scale 0 to 100; for Plant response rating, Lambsquarters: 16 g ai/ha
Source text: as §1, §2

speedwell [1] = test: Test D preemergence; format: in vivo, Veronica persica; details: for Plant response rating (scale 0 to 100), Speedwell: 16 g ai/ha, taken as preemergence; for Plant response rating, Speedwell: Preemergence, scale 0 to 100
Source text: as §1, §2

windgrass = test: Test D preemergence; format: in vivo, Apera spica-venti; details: for Plant response rating (scale 0 to 100), Windgrass: 16 g ai/ha, taken as preemergence; for Plant response rating, Windgrass: Preemergence, scale 0 to 100
Source text: as §1, §2

chamomile = test: Test D postemergence; format: in vivo, Matricaria inodora; details: scale 0 to 100; for Plant response rating, Chamomile: 16 g ai/ha
Source text: as §1, §2

kochia [2] = test: Test D preemergence; format: in vivo, Kochia scoparia; details: for Plant response rating (scale 0 to 100), Kochia: 16 g ai/ha, taken as preemergence; for Plant response rating, Kochia: Preemergence, scale 0 to 100
Source text: as §1, §2

ryegrass, Italian = test: Test D postemergence; format: in vivo, Lolium multiflorum; details: scale 0 to 100; for Plant response rating, Ryegrass, Italian: 16 g ai/ha
Source text: as §1, §2

kochia [3] = test: Test D postemergence; format: in vivo, Kochia scoparia; details: scale 0 to 100; for Plant response rating, Kochia: 16 g ai/ha
Source text: as §1, §2

radish, wild = test: Test D postemergence; format: in vivo, Raphanus raphanistrum; details: scale 0 to 100
Source text: as §1, §2

speedwell [4] = test: Test D postemergence; format: in vivo, Veronica persica; details: scale 0 to 100; for Plant response rating, Speedwell: 16 g ai/ha
Source text: as §1, §2

## O=C(NC1CC1)c1cc(CCF)n(Cc2ccnc(C(F)(F)F)c2)n1 [Compound 176]
buckwheat, wild
  Plant response rating (scale 0 to 100), Buckwheat, Wild: 0
buckwheat, wild; 31 g ai/ha
  Plant response rating, Buckwheat, Wild: 15
buckwheat, wild; 62 g ai/ha
  Plant response rating, Buckwheat, Wild: 95
buckwheat, wild; 125 g ai/ha
  Plant response rating, Buckwheat, Wild: 85
Field violet
  Plant response rating (scale 0 to 100), Field Violet: 0
Field violet; 62 g ai/ha
  Plant response rating, Field Violet: 50
Field violet; 125 g ai/ha
  Plant response rating, Field Violet: 65
canarygrass
  Plant response rating (scale 0 to 100), Canarygrass: 0
canarygrass; 31 g ai/ha
  Plant response rating, Canarygrass: 5
canarygrass; 62 g ai/ha
  Plant response rating, Canarygrass: 25
canarygrass; 125 g ai/ha
  Plant response rating, Canarygrass: 35
lambsquarters; Postemergence
  Plant response rating, Lambsquarters: 55
lambsquarters; Postemergence, 31 g ai/ha
  Lambsquarters plant response rating: 60
lambsquarters; Postemergence, 125 g ai/ha
  Lambsquarters plant response rating: 75
lambsquarters; postemergence, 62 g ai/ha
  Lambsquarters plant response rating: 60
Speedwell [1]
  Plant response rating (scale 0 to 100), Speedwell: 15
Speedwell [1]; 62 g ai/ha
  Plant response rating, Speedwell: 100
Speedwell [1]; 125 g ai/ha
  Plant response rating, Speedwell: 100
windgrass
  Plant response rating (scale 0 to 100), Windgrass: 0
windgrass; 62 g ai/ha
  Plant response rating, Windgrass: 10
windgrass; 125 g ai/ha
  Plant response rating, Windgrass: 40
chamomile; Postemergence
  Plant response rating, Chamomile: 10
chamomile; Postemergence, 31 g ai/ha
  Chamomile plant response rating: 15
chamomile; Postemergence, 125 g ai/ha
  Chamomile plant response rating: 35
chamomile; postemergence, 62 g ai/ha
  Chamomile plant response rating: 15
Kochia [2]
  Plant response rating (scale 0 to 100), Kochia: 5
Kochia [2]; 62 g ai/ha
  Plant response rating, Kochia: 45
Kochia [2]; 125 g ai/ha
  Plant response rating, Kochia: 100
ryegrass, Italian; Postemergence
  Plant response rating, Ryegrass, Italian: 5
ryegrass, Italian; Postemergence, 31 g ai/ha
  Ryegrass, Italian plant response rating: 5
ryegrass, Italian; Postemergence, 125 g ai/ha
  Ryegrass, Italian plant response rating: 10
ryegrass, Italian; postemergence, 62 g ai/ha
  Ryegrass, Italian plant response rating: 5
Kochia [3]; Postemergence
  Plant response rating, Kochia: 30
Kochia [3]; Postemergence, 31 g ai/ha
  Kochia plant response rating: 65
Kochia [3]; Postemergence, 125 g ai/ha
  Kochia plant response rating: 70
Kochia [3]; postemergence, 62 g ai/ha
  Kochia plant response rating: 65
radish, wild; Postemergence, 31 g ai/ha
  Radish, Wild plant response rating: 65
radish, wild; Postemergence, 125 g ai/ha
  Radish, Wild plant response rating: 65
radish, wild; postemergence, 62 g ai/ha
  Radish, Wild plant response rating: 65
Speedwell [4]; Postemergence
  Plant response rating, Speedwell: 50
Speedwell [4]; Postemergence, 31 g ai/ha
  Speedwell plant response rating: 70
Speedwell [4]; Postemergence, 125 g ai/ha
  Speedwell plant response rating: 70
Speedwell [4]; postemergence, 62 g ai/ha
  Speedwell plant response rating: 70

## CCc1cc(C(=O)NC2CC2)nn1Cc1ccnc(C(F)(F)F)c1 [Compound 76]
buckwheat, wild
  Plant response rating (scale 0 to 100), Buckwheat, Wild: 0
buckwheat, wild; 31 g ai/ha
  Plant response rating, Buckwheat, Wild: 20
buckwheat, wild; 62 g ai/ha
  Plant response rating, Buckwheat, Wild: 70
buckwheat, wild; 125 g ai/ha
  Plant response rating, Buckwheat, Wild: 100
buckwheat, wild; 250 g ai/ha
  Plant response rating, Buckwheat, Wild: 100
Field violet
  Plant response rating (scale 0 to 100), Field Violet: 60
Field violet; 31 g ai/ha
  Plant response rating, Field Violet: 95
Field violet; 62 g ai/ha
  Plant response rating, Field Violet: 100
Field violet; 125 g ai/ha
  Plant response rating, Field Violet: 100
Field violet; 250 g ai/ha
  Plant response rating, Field Violet: 100
canarygrass
  Plant response rating (scale 0 to 100), Canarygrass: 0
canarygrass; 31 g ai/ha
  Plant response rating, Canarygrass: 5
canarygrass; 62 g ai/ha
  Plant response rating, Canarygrass: 65
canarygrass; 125 g ai/ha
  Plant response rating, Canarygrass: 100
canarygrass; 250 g ai/ha
  Plant response rating, Canarygrass: 100
lambsquarters; Postemergence
  Plant response rating, Lambsquarters: 65
lambsquarters; Postemergence, 31 g ai/ha
  Lambsquarters plant response rating: 70
lambsquarters; Postemergence, 125 g ai/ha
  Lambsquarters plant response rating: 95
lambsquarters; Postemergence, 250 g ai/ha
  Lambsquarters plant response rating: 100
lambsquarters; postemergence, 62 g ai/ha
  Lambsquarters plant response rating: 75
Speedwell [1]
  Plant response rating (scale 0 to 100), Speedwell: 100
Speedwell [1]; 31 g ai/ha
  Plant response rating, Speedwell: 100
Speedwell [1]; 62 g ai/ha
  Plant response rating, Speedwell: 100
Speedwell [1]; 125 g ai/ha
  Plant response rating, Speedwell: 100
Speedwell [1]; 250 g ai/ha
  Plant response rating, Speedwell: 100
windgrass
  Plant response rating (scale 0 to 100), Windgrass: 5
windgrass; 31 g ai/ha
  Plant response rating, Windgrass: 15
windgrass; 62 g ai/ha
  Plant response rating, Windgrass: 65
windgrass; 125 g ai/ha
  Plant response rating, Windgrass: 80
windgrass; 250 g ai/ha
  Plant response rating, Windgrass: 100
chamomile; Postemergence
  Plant response rating, Chamomile: 10
chamomile; Postemergence, 31 g ai/ha
  Chamomile plant response rating: 25
chamomile; Postemergence, 125 g ai/ha
  Chamomile plant response rating: 50
chamomile; Postemergence, 250 g ai/ha
  Chamomile plant response rating: 55
chamomile; postemergence, 62 g ai/ha
  Chamomile plant response rating: 30
Kochia [2]
  Plant response rating (scale 0 to 100), Kochia: 20
Kochia [2]; 31 g ai/ha
  Plant response rating, Kochia: 100
Kochia [2]; 62 g ai/ha
  Plant response rating, Kochia: 100
Kochia [2]; 125 g ai/ha
  Plant response rating, Kochia: 100
Kochia [2]; 250 g ai/ha
  Plant response rating, Kochia: 100
ryegrass, Italian; Postemergence
  Plant response rating, Ryegrass, Italian: 0
ryegrass, Italian; Postemergence, 31 g ai/ha
  Ryegrass, Italian plant response rating: 0
ryegrass, Italian; Postemergence, 125 g ai/ha
  Ryegrass, Italian plant response rating: 5
ryegrass, Italian; Postemergence, 250 g ai/ha
  Ryegrass, Italian plant response rating: 10
ryegrass, Italian; postemergence, 62 g ai/ha
  Ryegrass, Italian plant response rating: 5
Kochia [3]; Postemergence
  Plant response rating, Kochia: 25
Kochia [3]; Postemergence, 31 g ai/ha
  Kochia plant response rating: 40
Kochia [3]; Postemergence, 125 g ai/ha
  Kochia plant response rating: 60
Kochia [3]; Postemergence, 250 g ai/ha
  Kochia plant response rating: 75
Kochia [3]; postemergence, 62 g ai/ha
  Kochia plant response rating: 50
radish, wild; Postemergence, 16 g ai/ha
  Plant response rating, Radish, Wild: 5
radish, wild; Postemergence, 31 g ai/ha
  Radish, Wild plant response rating: 10
radish, wild; Postemergence, 125 g ai/ha
  Radish, Wild plant response rating: 70
radish, wild; Postemergence, 250 g ai/ha
  Radish, Wild plant response rating: 65
radish, wild; postemergence, 62 g ai/ha
  Radish, Wild plant response rating: 20
Speedwell [4]; Postemergence
  Plant response rating, Speedwell: 65
Speedwell [4]; Postemergence, 31 g ai/ha
  Speedwell plant response rating: 60
Speedwell [4]; Postemergence, 125 g ai/ha
  Speedwell plant response rating: 75
Speedwell [4]; Postemergence, 250 g ai/ha
  Speedwell plant response rating: 100
Speedwell [4]; postemergence, 62 g ai/ha
  Speedwell plant response rating: 75
